Reference: PubChem BioAssay (NCI)
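96-well plates; 48 h exposure; 5 concentrations. Endpoints by linear interpolation between flanking doses. Not reached: highest tested concentration assigned. The concentration for 50% growth inhibition is given as GI50. At the TGI there is no net growth.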

Key:
Test in all cases: NCI-60 cell line screen, 48 h
786-0 renal = test system: 786-0 renal
A498 renal = test system: A498 renal
ACHN renal = test system: ACHN renal
BT-549 breast = test system: BT-549 breast
CCRF-CEM leukemia = test system: CCRF-CEM leukemia
COLO 205 colon = test system: COLO 205 colon
DU-145 prostate = test system: DU-145 prostate
EKVX NSCLC = test system: EKVX NSCLC
HCC-2998 colon = test system: HCC-2998 colon
HCT-116 colon = test system: HCT-116 colon
HL-60(TB) leukemia = test system: HL-60(TB) leukemia
HOP-92 NSCLC = test system: HOP-92 NSCLC
HT29 colon = test system: HT29 colon
IGROV1 ovarian = test system: IGROV1 ovarian
K-562 leukemia = test system: K-562 leukemia
KM12 colon = test system: KM12 colon
LOX IMVI melanoma = test system: LOX IMVI melanoma
M14 melanoma = test system: M14 melanoma
MALME-3M melanoma = test system: MALME-3M melanoma
MDA-MB-231 breast = test system: MDA-MB-231 breast
MDA-MB-435 = test system: MDA-MB-435
MOLT-4 leukemia = test system: MOLT-4 leukemia
NCI-H226 lung = test system: NCI-H226 lung
NCI-H23 lung = test system: NCI-H23 lung
NCI-H460 lung = test system: NCI-H460 lung
NCI-H522 lung = test system: NCI-H522 lung
NCI/ADR-RES ovarian = test system: NCI/ADR-RES ovarian
OVCAR-5 ovarian = test system: OVCAR-5 ovarian
OVCAR-8 ovarian = test system: OVCAR-8 ovarian
PC-3 prostate = test system: PC-3 prostate
RPMI-8226 leukemia = test system: RPMI-8226 leukemia
RXF 393 renal = test system: RXF 393 renal
SF-268 CNS = test system: SF-268 CNS
SF-295 CNS = test system: SF-295 CNS
SF-539 CNS = test system: SF-539 CNS
SK-MEL-2 melanoma = test system: SK-MEL-2 melanoma
SK-MEL-28 melanoma = test system: SK-MEL-28 melanoma
SK-MEL-5 melanoma = test system: SK-MEL-5 melanoma
SK-OV-3 ovarian = test system: SK-OV-3 ovarian
SNB-19 CNS = test system: SNB-19 CNS
SNB-75 CNS = test system: SNB-75 CNS
SR leukemia = test system: SR leukemia
T-47D breast = test system: T-47D breast
TK-10 renal = test system: TK-10 renal
U251 CNS = test system: U251 CNS
UACC-257 melanoma = test system: UACC-257 melanoma
UACC-62 melanoma = test system: UACC-62 melanoma
UO-31 renal = test system: UO-31 renal
HOP-62 NSCLC = test system: HOP-62 NSCLC
HS 578T breast = test system: HS 578T breast
OVCAR-3 ovarian = test system: OVCAR-3 ovarian

Compound: COc1ccc2nc3c(n2c1)C(=O)C(=O)c1ccccc1-3
- GI50 (786-0 renal): 2.07 µM
- TGI (786-0 renal): 4.4 µM
- GI50 (A498 renal): 2.44 µM
- TGI (A498 renal): 6.11 µM
- GI50 (ACHN renal): 1.46 µM
- TGI (ACHN renal): 2.77 µM
- GI50 (BT-549 breast): 1.39 µM
- TGI (BT-549 breast): 2.69 µM
- GI50 (CCRF-CEM leukemia): 2.6 µM
- TGI (CCRF-CEM leukemia): 6.62 µM
- GI50 (COLO 205 colon): 2.73 µM
- TGI (COLO 205 colon): 8.14 µM
- GI50 (DU-145 prostate): 1.66 µM
- TGI (DU-145 prostate): 3.18 µM
- GI50 (EKVX NSCLC): 1.8 µM
- TGI (EKVX NSCLC): 4.83 µM
- GI50 (HCC-2998 colon): 1.83 µM
- TGI (HCC-2998 colon): 3.63 µM
- GI50 (HCT-116 colon): 1.58 µM
- TGI (HCT-116 colon): 3.7 µM
- GI50 (HL-60(TB) leukemia): 2.23 µM
- TGI (HL-60(TB) leukemia): 5.57 µM
- GI50 (HOP-92 NSCLC): 3.09 µM
- TGI (HOP-92 NSCLC): 9.53 µM
- GI50 (HT29 colon): 2.59 µM
- TGI (HT29 colon): 6.19 µM
- GI50 (IGROV1 ovarian): 1.75 µM
- TGI (IGROV1 ovarian): 5.34 µM
- GI50 (K-562 leukemia): 0.939 µM
- TGI (K-562 leukemia): 6.09 µM
- GI50 (KM12 colon): 2.05 µM
- TGI (KM12 colon): 5.04 µM
- GI50 (LOX IMVI melanoma): 0.466 µM
- TGI (LOX IMVI melanoma): 1.89 µM
- GI50 (M14 melanoma): 1.75 µM
- TGI (M14 melanoma): 3.32 µM
- GI50 (MALME-3M melanoma): 1.55 µM
- TGI (MALME-3M melanoma): 2.93 µM
- GI50 (MDA-MB-231 breast): 2.53 µM
- TGI (MDA-MB-231 breast): 10.6 µM
- GI50 (MDA-MB-435): 0.192 µM
- TGI (MDA-MB-435): 0.353 µM
- GI50 (MOLT-4 leukemia): 2.43 µM
- TGI (MOLT-4 leukemia): 5.81 µM
- GI50 (NCI-H226 lung): 2.03 µM
- TGI (NCI-H226 lung): 4.89 µM
- GI50 (NCI-H23 lung): 1.16 µM
- TGI (NCI-H23 lung): 4.21 µM
- GI50 (NCI-H460 lung): 1.63 µM
- TGI (NCI-H460 lung): 3.65 µM
- GI50 (NCI-H522 lung): 1.54 µM
- TGI (NCI-H522 lung): 3.39 µM
- GI50 (NCI/ADR-RES ovarian): 2.06 µM
- TGI (NCI/ADR-RES ovarian): 6.58 µM
- GI50 (OVCAR-5 ovarian): 1.8 µM
- TGI (OVCAR-5 ovarian): 3.32 µM
- GI50 (OVCAR-8 ovarian): 2.41 µM
- TGI (OVCAR-8 ovarian): 9.36 µM
- GI50 (PC-3 prostate): 1.52 µM
- TGI (PC-3 prostate): 9.02 µM
- GI50 (RPMI-8226 leukemia): 1.52 µM
- TGI (RPMI-8226 leukemia): 5.36 µM
- GI50 (RXF 393 renal): 1.84 µM
- TGI (RXF 393 renal): 3.55 µM
- GI50 (SF-268 CNS): 2.05 µM
- TGI (SF-268 CNS): 5.15 µM
- GI50 (SF-295 CNS): 1.62 µM
- TGI (SF-295 CNS): 3.03 µM
- GI50 (SF-539 CNS): 1.82 µM
- TGI (SF-539 CNS): 3.24 µM
- GI50 (SK-MEL-2 melanoma): 1.83 µM
- TGI (SK-MEL-2 melanoma): 3.66 µM
- GI50 (SK-MEL-28 melanoma): 1.89 µM
- TGI (SK-MEL-28 melanoma): 3.52 µM
- GI50 (SK-MEL-5 melanoma): 1.67 µM
- TGI (SK-MEL-5 melanoma): 3.06 µM
- GI50 (SK-OV-3 ovarian): 1.75 µM
- TGI (SK-OV-3 ovarian): 3.57 µM
- GI50 (SNB-19 CNS): 1.98 µM
- TGI (SNB-19 CNS): 4.4 µM
- GI50 (SNB-75 CNS): 1.4 µM
- TGI (SNB-75 CNS): 2.77 µM
- GI50 (SR leukemia): 2.53 µM
- TGI (SR leukemia): 6.59 µM
- GI50 (T-47D breast): 2.02 µM
- TGI (T-47D breast): 5.5 µM
- GI50 (TK-10 renal): 2.62 µM
- TGI (TK-10 renal): 4.78 µM
- GI50 (U251 CNS): 1.51 µM
- TGI (U251 CNS): 2.85 µM
- GI50 (UACC-257 melanoma): 1.73 µM
- TGI (UACC-257 melanoma): 3.13 µM
- GI50 (UACC-62 melanoma): 1.47 µM
- TGI (UACC-62 melanoma): 2.9 µM
- GI50 (UO-31 renal): 1.31 µM
- TGI (UO-31 renal): 2.62 µM

Compound: CCCCCN1C(=O)/C(=c2\sc3n(c2=O)C2C(NN=3)N(CC)C(=O)N2CC)c2ccccc21 (centres undefined)
- GI50 (786-0 renal): 1.59 µM
- TGI (786-0 renal): 3.27 µM
- GI50 (A498 renal): 0.274 µM
- TGI (A498 renal): 1.67 µM
- GI50 (ACHN renal): 1.17 µM
- TGI (ACHN renal): 2.58 µM
- GI50 (BT-549 breast): 2.41 µM
- TGI (BT-549 breast): 10.7 µM
- GI50 (COLO 205 colon): 1.55 µM
- TGI (COLO 205 colon): 3.56 µM
- GI50 (DU-145 prostate): 2.01 µM
- TGI (DU-145 prostate): 4.52 µM
- GI50 (HL-60(TB) leukemia): 1.91 µM
- TGI (HL-60(TB) leukemia): 4.07 µM
- GI50 (HOP-62 NSCLC): 1.62 µM
- TGI (HOP-62 NSCLC): 3.83 µM
- GI50 (HOP-92 NSCLC): 1.22 µM
- TGI (HOP-92 NSCLC): 3.72 µM
- GI50 (HS 578T breast): 1.03 µM
- TGI (HS 578T breast): 4.48 µM
- GI50 (HT29 colon): 1.65 µM
- TGI (HT29 colon): 3.02 µM
- GI50 (IGROV1 ovarian): 1.65 µM
- TGI (IGROV1 ovarian): 4.15 µM
- GI50 (M14 melanoma): 1.28 µM
- TGI (M14 melanoma): 3.98 µM
- GI50 (MDA-MB-231 breast): 1.87 µM
- TGI (MDA-MB-231 breast): 4.34 µM
- GI50 (MDA-MB-435): 0.32 µM
- TGI (MDA-MB-435): 1.08 µM
- GI50 (NCI-H23 lung): 1.83 µM
- TGI (NCI-H23 lung): 5.23 µM
- GI50 (NCI-H522 lung): 0.754 µM
- TGI (NCI-H522 lung): 2.29 µM
- GI50 (OVCAR-3 ovarian): 1.41 µM
- TGI (OVCAR-3 ovarian): 3.01 µM
- GI50 (RXF 393 renal): 0.798 µM
- TGI (RXF 393 renal): 2.83 µM
- GI50 (SF-268 CNS): 1.49 µM
- TGI (SF-268 CNS): 3.77 µM
- GI50 (SF-295 CNS): 0.833 µM
- TGI (SF-295 CNS): 3.21 µM
- GI50 (SF-539 CNS): 1.3 µM
- TGI (SF-539 CNS): 2.61 µM
- GI50 (SK-MEL-2 melanoma): 1.55 µM
- TGI (SK-MEL-2 melanoma): 3.3 µM
- GI50 (SK-OV-3 ovarian): 1.44 µM
- TGI (SK-OV-3 ovarian): 2.92 µM
- GI50 (SNB-19 CNS): 1.88 µM
- TGI (SNB-19 CNS): 5.25 µM
- GI50 (SNB-75 CNS): 0.26 µM
- TGI (SNB-75 CNS): 1.37 µM
- GI50 (TK-10 renal): 1.8 µM
- TGI (TK-10 renal): 3.44 µM
- GI50 (U251 CNS): 1.31 µM
- TGI (U251 CNS): 2.72 µM
- GI50 (UACC-62 melanoma): 1.06 µM
- TGI (UACC-62 melanoma): 3.29 µM
